From publication PMC9146423, “Discovery of Nitro-azolo[1,5-a]pyrimidines with Anti-Inflammatory and Protective Activity against LPS-Induced Acute Lung Injury” (Pharmaceuticals, 2022)

System: C57BL/6J mice
Experiment: LPS-induced acute lung injury in mice
Type: in vivo, mouse
Procedure: The randomization of C57bl/6j mice into experimental and control groups was based on body weight and behavioral activity assessed in an open field test 24 h before the start of the experiment. The next day, mice were treated with vehicle or test compounds 1 h before intratracheal instillation of LPS solution in sterile saline.
The randomization of C57BL/6J mice was performed by body weight and motor activity in an open field test. Dexamethasone (5 mg/kg) and 9g (30 mg/kg) were administered intraperitoneally in 10 mL/kg sterile saline. The control animals received an equal volume of the vehicle. After 1 h, the mice were anesthetized with isoflurane inhalation until their breathing rate was decreased. The mice were suspended by the front incisors on an inclined surgical table, the tongue was pulled out with narrow curved tweezers, and 1 mg/mL of E. coli O127:B8 LPS (Sigma-Aldrich, St. Louis, MO, USA) in 1 mL/kg sterile saline was injected into the back of the oropharynx. Intact control animals received an equal volume of sterile saline similarly.
The animals were placed in the center of a round open field with an arena of 44 cm diameter and 32 cm wall height under 300 lux lighting. During 5 min of observation, horizontal motor activity, vertical motor activity, time spent in the central part, the number of exits to the central part, and exploratory activity parameters were recorded. Body temperature was determined rectally.
The mice were anesthetized with 500 mg/kg chloral hydrate (Sigma-Aldrich, St. Louis, MO, USA) intraperitoneally 24 h after LPS administration. Blood was taken by intracardiac puncture in test tubes with heparin. The blood samples were centrifuged at 1000 g and 4 °C for 15 min on a 2–16PK centrifuge (Sigma, Germany), and plasma was separated and stored at −80 °C until the assay. Thoracotomy was performed, the ligature was applied to the left bronchus and the trachea was cannulated with a 20 G needle. The right lung was washed twice with 0.7 mL of warm sterile saline. After combining aliquots, the bronchoalveolar lavage (BAL) was centrifuged at 800 g and 4 °C for 10 min. The supernatant was separated and stored at −80 °C until the assay. The residual cell pellet was resuspended in 50 μL of PBS for further study. The left lung was washed in saline and placed in 10% buffered formalin for morphological evaluation.
The total number of leukocytes in heparinized blood was determined after staining with methylene blue in Goryaev’s counting chamber at ×100 magnification. Smears of blood and BAL cell pellets were air-dried, fixed according to May–Grunwald for 3 min, and stained according to Romanowsky–Giemsa. After 30 min, the slides were washed, air-dried, and examined with immersion objective (×1000 total magnification). On each slide, a total of at least 100 cells were calculated.
The concentration of total protein in BAL supernatants was determined spectrophotometrically with the pyrogallol red method, and the protein in the blood plasma was determined with the biuret method using commercial kits (Vital, Saint Petersburg, Russia) and bovine serum albumin as the standard. The lung permeability index was calculated as the protein concentration in the BAL to plasma ratio.
Morphological markers of inflammation in lung tissue were assessed in a semi-quantitative way on paraffin sections stained with hematoxylin and eosin. The sections were examined under a light microscope (Zeiss, Germany) by a double-blind method. The score of inflammation was determined as follows: 0—the presence of single inflammatory cells; 1—weak inflammation, inflammatory cells infiltrate no more than 10% of the lung tissue, including interalveolar cell partitions; 2—moderate inflammation, inflammatory cells infiltrate no more than 50% of the structures of the lung, but the interstitial tissue is identified; 3—severe inflammation, inflammatory cells densely infiltrate more than 50% of the lung tissue and airways.

[1] = 24 h after LPS, dexamethasone 5 mg/kg, 9g 30 mg/kg i.p.

Cc1nc2nnnn2c(NCCc2ccc(O)cc2)c1[N+](=O)[O-] [Compound 9g, N-[2-(4-Hydroxyphenyl)ethyl]-5-methyl-6-nitrotetrazolo-[1,5-a]pyrimidin-7-amine]
Blood leukocyte subpopulations (24 h after LPS): normalized leukocyte subpopulations to the values of intact animals
CD68+ cells in lung tissue, immunostaining (24 h after LPS): decreased the immunoreactivity of the lung tissue
LPS-induced lung lesions, histologic scoring (hemorrhage and neutrophil infiltration) (24 h after LPS, H&E, semi-quantitative): significantly ameliorated
Blood plasma IL-6 level [1]: normalized the blood plasma IL-6 level
Permeability of pulmonary vessels (lung permeability index) [1]: prevent the increase in permeability of pulmonary vessels
Horizontal motor activity, open field test (24 h after LPS, dexamethasone 5 mg/kg, 9g 30 mg/kg i.p. 1 h before LPS): restored motor activity of animals comparably to dexamethasone
Segmented neutrophils count in BAL (in words) (24 h after LPS, monocytes in BAL increased): significantly decreased the segmented neutrophils count
Spleen mass and lymphocyte content (markers of immunodepression) (LPS-treated mice, dexamethasone 5 mg/kg, 9g 30 mg/kg i.p.): nonsignificant
LPS-induced hypothermia (body temperature determined rectally): attenuated LPS-induced hypothermia
Segmented neutrophils, share of BAL cells (bronchoalveolar lavage 24 h after LPS, dexamethasone 5 mg/kg, 9g 30 mg/kg i.p.): 37.6%
Number of center entries and time in the center, open field test (dexamethasone 5 mg/kg, 9g 30 mg/kg i.p.): restored the number of center entries and time in the center to intact levels
